These results are taken from patent US8906952B2, “Indole derivative or pharmaceutically acceptable salt thereof, preparation method thereof, and pharmaceutical composition for preventing or treating metabolic diseases containing same as active ingredient” (Korea Research Institute of Bioscience and Biotechnology, priority 2011, dated 2014).

What all share (type): biochemical
For one assay, the target named is T1, human DGAT2 (Homo sapiens, UniProt Q96PD7).
T1 construct: made in house; host or cells: sf9 insect cells
T1 sequence (Q96PD7 1-388): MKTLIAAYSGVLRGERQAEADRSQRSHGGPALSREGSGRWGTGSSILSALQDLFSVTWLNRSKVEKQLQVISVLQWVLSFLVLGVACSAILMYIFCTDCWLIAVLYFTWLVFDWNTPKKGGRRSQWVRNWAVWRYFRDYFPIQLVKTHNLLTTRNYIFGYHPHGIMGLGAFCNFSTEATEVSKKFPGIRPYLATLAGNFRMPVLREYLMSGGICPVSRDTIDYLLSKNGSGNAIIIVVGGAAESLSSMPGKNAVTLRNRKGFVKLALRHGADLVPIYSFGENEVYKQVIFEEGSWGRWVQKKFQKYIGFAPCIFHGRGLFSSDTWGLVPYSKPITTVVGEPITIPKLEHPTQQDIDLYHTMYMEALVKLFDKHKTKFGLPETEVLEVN
The experiment in a line: DGAT enzyme inhibition test, hDGAT2 enzyme from sf9 insect cells (DGAT2 selectivity). The text has this:
(§1) To investigate inhibitory effect of the compounds of Examples 1-33 against DGAT enzyme activity, DGAT enzyme inhibition and DGAT2 selectivity were investigated using zymogen including:
(§2) 1) hDGAT1 and hDGAT2 enzymes, derived from insect cell overexpressing human DGAT1 and DGAT2 (‘sf9’), respectively,
(§3) To be specific, for the purpose of measuring human-derived DGAT enzyme inhibitory activity, using the zymogen, including enzymes derived from insect cell overexpressing human DGAT1 and DGAT2 (‘sf9’), microsomal protein isolated from human duodenal adenocarcinoma (‘Hutu 80’), and microsomal protein isolated from rat, and according to Coleman et al., (Methods Enzymol., 98-103, 1992), and substrate including 1,2-diacylglycerol(Sigma, D0138) and [^14C]palmitoyl-CoA (Amersham, CFA583), the amount of radiation of [^14C]triacylglycerol produced after enzymatic reaction was measured.
(§4) To be more specific, to the reaction solution containing 175 mM Tris-HCl (pH 8.0), 20 μl bovine serum albumin (10 mg/ml), 100 mM magnesium chloride, 30 μM [^14C]palmitoyl CoA (0.02 μCi, Amersham) and 200 μM 1,2-dioleoylglycerol, reagent dissolved in dimethylsulfoxide (10.0 μl) was added. After introducing 100 to 200 μg isolated microsomal protein and allowing the same to react at 25° C. for 10 min, the reaction was stopped by adding 1.5 ml stop solution (2-propanol:heptane:water=80:20:2, v:v:v). To isolate the product of the reaction (i.e., [^14C]triacylglycerol), 1 ml heptane and 0.5 ml distilled water were added and then decocted. After taking 1 ml supernatant, 2 ml alkaline ethanol solution (ethanol:0.5 N sodium hydroxide:water=50:10:40, v:v:v) were added and then decocted. After taking 0.65 ml supernatant from the decoction, the amount of radiation was measured with liquid scintillation counter (LSC). The DGAT inhibitory activity was calculated with Mathematical Expression 1 below:
(§5) T denotes cpm of experimental group in which the enzymatic reaction solution was treated with the sample,
(§6) C denotes cpm of control group in which the enzymatic reaction solution was not treated with the sample, and
(§7) B denotes cpm of control group treated with the sample without zymogen.

The next assay has as its target T2, human DGAT1 (Homo sapiens, UniProt O75907).
T2 construct: made in house; host or cells: sf9 insect cells
T2 sequence (O75907 1-488): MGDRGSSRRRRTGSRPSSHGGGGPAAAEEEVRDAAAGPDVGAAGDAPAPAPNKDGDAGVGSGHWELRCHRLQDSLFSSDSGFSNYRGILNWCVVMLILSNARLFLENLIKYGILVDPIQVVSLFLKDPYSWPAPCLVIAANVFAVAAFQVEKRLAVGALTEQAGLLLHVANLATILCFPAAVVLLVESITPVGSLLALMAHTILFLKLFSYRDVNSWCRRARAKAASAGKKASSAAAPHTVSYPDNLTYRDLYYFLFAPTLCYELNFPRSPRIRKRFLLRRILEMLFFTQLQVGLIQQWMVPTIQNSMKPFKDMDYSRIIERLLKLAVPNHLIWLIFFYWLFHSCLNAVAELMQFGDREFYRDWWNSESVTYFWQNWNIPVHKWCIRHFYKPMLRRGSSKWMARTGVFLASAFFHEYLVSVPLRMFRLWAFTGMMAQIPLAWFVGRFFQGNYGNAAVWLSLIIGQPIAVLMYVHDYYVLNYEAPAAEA
The assay can be described thus: DGAT enzyme inhibition test, hDGAT1 enzyme from sf9 insect cells. The settings on record: enzyme from sf9 cells overexpressing hDGAT1; read-out: hDGAT-1 (sf9) IC50.
Excerpt: as §1, §2, §3, §4, §5, §6, §7

The next assay concerns the target T3, DGAT-1 (rat liver) (Rattus norvegicus, UniProt Q9ERM3).
T3 construct: microsomal protein isolated from rat; from tissue; host or cells: rat liver microsomes
T3 sequence (Q9ERM3 1-498): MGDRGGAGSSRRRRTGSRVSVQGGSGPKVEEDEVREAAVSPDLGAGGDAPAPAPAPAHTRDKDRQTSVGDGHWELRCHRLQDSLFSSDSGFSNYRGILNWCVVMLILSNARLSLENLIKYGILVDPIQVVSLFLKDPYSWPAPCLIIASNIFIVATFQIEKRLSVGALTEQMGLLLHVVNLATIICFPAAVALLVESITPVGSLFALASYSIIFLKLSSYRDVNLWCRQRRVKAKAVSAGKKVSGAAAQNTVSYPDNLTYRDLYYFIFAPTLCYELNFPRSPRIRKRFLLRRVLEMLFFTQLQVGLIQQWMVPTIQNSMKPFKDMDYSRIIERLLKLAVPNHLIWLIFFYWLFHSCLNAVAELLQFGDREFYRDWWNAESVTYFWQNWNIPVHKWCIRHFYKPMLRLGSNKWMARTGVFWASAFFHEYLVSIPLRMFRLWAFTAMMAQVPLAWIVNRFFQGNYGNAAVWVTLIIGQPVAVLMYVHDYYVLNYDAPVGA
The experiment in a line: DGAT enzyme inhibition test, rat liver-derived DGAT enzyme. The settings on record: rat liver microsomal protein.
Excerpt: as §1
3) rat liver-derived DGAT enzyme.
as §3, §4, §5, §6, §7

Where [1] appears, read: 10 μM, enzyme from sf9 cells overexpressing hDGAT2, read-out: hDGAT-2 (sf9) inhibition rate(%)at 10 μM.
Where [2] appears, read: concentration of 10 μM, read-out: hDGAT2 inhibition.

Where two headings read alike, the source gives them in different places. Where only a bound is given, the exact number is not on record here.

For `CC(C)N(NC(=O)c1ccccc1)C(=O)/C=C/c1cn(C(=O)OC(C)(C)C)c2ccccc12` [Example 1, (E)-tert-butyl 3-(3-(2-benzoyl-1-isopropylhydrazinyl)-3-oxoprop-1-enyl)-1H-indole-1-carboxylate], the results for the inhibition at 10 µM on human DGAT2 (setting [1]) and at human DGAT2 (setting [2]) were 7.5% and less than 11%, respectively. The IC50 (as a rule, the midpoint of a concentration-inhibition curve) was 9.6 µM on human DGAT1 and 1.1 µM against DGAT-1 (rat liver).
Turning to `CC(C)N(NC(=O)c1ccccn1)C(=O)/C=C/c1cn(C(=O)OC(C)(C)C)c2ccccc12` [Example 2, (E)-tert-butyl 3-(3-(1-isopropyl-2-picolinoylhydrazinyl)-3-oxoprop-1-enyl)-1H-indole-1-carboxylate], the inhibition (usually the share of the control response that was lost under treatment) at 10 µM on human DGAT2 (setting [1]) was less than 0%. Also, the results for the IC50 at human DGAT1 and on DGAT-1 (rat liver) were greater than 100 µM and 7.6 µM, respectively.
As to `CC(C)N(NC(=O)c1cccnc1)C(=O)/C=C/c1cn(C(=O)OC(C)(C)C)c2ccccc12` [Example 3, (E)-tert-butyl 3-(3-(1-isopropyl-2-nicotinoylhydrazinyl)-3-oxoprop-1-enyl)-1H-indole-1-carboxylate], the inhibition at 10 µM on human DGAT2 (setting [1]) is less than 0%. Also, the IC50 at human DGAT1 is greater than 100 µM; against DGAT-1 (rat liver) it was 3.9 µM.
As to `CC(C)N(NC(=O)c1cccc(O)c1)C(=O)/C=C/c1cn(C(=O)OC(C)(C)C)c2ccccc12` [Example 4, (E)-tert-butyl 3-(3-(2-(3-hydroxybenzoyl)-1-isopropylhydrazinyl)-3-oxoprop-1-enyl)-1H-indole-1-carboxylate], on human DGAT2 (setting [1]), the inhibition at 10 µM is less than 0%. Further, the IC50 is greater than 100 µM at human DGAT1 and 22.4 µM at DGAT-1 (rat liver).
For `CC(C)N(NC(=O)c1ccc(O)cc1)C(=O)/C=C/c1cn(C(=O)OC(C)(C)C)c2ccccc12` [Example 5, (E)-tert-butyl 3-(3-(2-(4-hydroxybenzoyl)-1-isopropylhydrazinyl)-3-oxoprop-1-enyl)-1H-indole-1-carboxylate], the inhibition at 10 µM at human DGAT2 (setting [1]) was less than 0%; on human DGAT2 (setting [2]) it was less than 11%. For the same compound, the IC50 turned out to be 22.5 µM on human DGAT1 and 16.3 µM against DGAT-1 (rat liver).
`COc1cccc(C(=O)NN(C(=O)/C=C/c2cn(C(=O)OC(C)(C)C)c3ccccc23)C(C)C)c1` [Example 6, (E)-tert-butyl 3-(3-(1-isopropyl-2-(3-methoxybenzoyl)hydrazinyl)-3-oxoprop-1-enyl)-1H-indole-1-carboxylate]: the inhibition at 10 µM on human DGAT2 (setting [1]) came to 0.3%. Also, the IC50 at human DGAT1 is greater than 100 µM; on DGAT-1 (rat liver), 2.1 µM.
`COc1ccc(C(=O)NN(C(=O)/C=C/c2cn(C(=O)OC(C)(C)C)c3ccccc23)C(C)C)cc1` [Example 7, (E)-tert-butyl 3-(3-(1-isopropyl-2-(4-methoxybenzoyl)hydrazinyl)-3-oxoprop-1-enyl)-1H-indole-1-carboxylate]: the inhibition at 10 µM on human DGAT2 (setting [1]) was less than 0%. In addition, the half-inhibitory concentration (IC50) was greater than 100 µM at human DGAT1 and 8.7 µM at DGAT-1 (rat liver).
As to `CC(C)N(NC(=O)c1cccc(OCCN2CCOCC2)c1)C(=O)/C=C/c1cn(C(=O)OC(C)(C)C)c2ccccc12` [Example 8, (E)-tert-butyl 3-(3-(1-isopropyl-2-(3-(2-morpholinoethoxy)benzoyl)hydrazinyl)-3-oxoprop-1-enyl)-1H-indole-1-carboxylate], the inhibition at 10 µM at human DGAT2 (setting [1]) was less than 0%. Moreover, the values for the IC50 at human DGAT1 and on DGAT-1 (rat liver) were greater than 100 µM and 2.5 µM, respectively.
Consider `CC(C)N(NC(=O)c1ccc(OCCN2CCOCC2)cc1)C(=O)/C=C/c1cn(C(=O)OC(C)(C)C)c2ccccc12` [Example 9, (E)-tert-butyl 3-(3-(1-isopropyl-2-(4-(2-morpholinoethoxy)benzoyl)hydrazinyl)-3-oxoprop-1-enyl)-1H-indole-1-carboxylate], for which the inhibition at 10 µM at human DGAT2 (setting [1]) was less than 0%. The results for the concentration for half-maximal inhibition (IC50) on human DGAT1 and at DGAT-1 (rat liver) were greater than 100 µM and 11.8 µM, respectively.
With `COCCOc1cccc(C(=O)NN(C(=O)/C=C/c2cn(C(=O)OC(C)(C)C)c3ccccc23)C(C)C)c1` [Example 10, (E)-tert-butyl 3-(3-(1-isopropyl-2-(3-(2-methoxyethoxy)benzoyl)hydrazinyl)-3-oxoprop-1-enyl)-1H-indole-1-carboxylate], the inhibition at 10 µM was 8.3% on human DGAT2 (setting [1]) and less than 11% on human DGAT2 (setting [2]). In addition, the IC50 was 36.4 µM at human DGAT1 and 2.6 µM against DGAT-1 (rat liver).
`CC(C)N(NC(=O)c1cccc(Br)c1)C(=O)/C=C/c1cn(C(=O)OC(C)(C)C)c2ccccc12` [Example 12, (E)-tert-butyl 3-(3-(2-(3-bromobenzoyl)-1-isopropylhydrazinyl)-3-oxoprop-1-enyl)-1H-indole-1-carboxylate]: the inhibition at 10 µM at human DGAT2 (setting [1]) was 3.9%; on human DGAT2 (setting [2]), less than 11%. The figures for the IC50 on human DGAT1 and against DGAT-1 (rat liver) were 6.8 µM and 1.7 µM, respectively.
With `CC(C)N(NC(=O)c1ccc(F)cc1)C(=O)/C=C/c1cn(C(=O)OC(C)(C)C)c2ccccc12` [Example 44, (E)-tert-butyl 3-(3-(2-(4-fluorobenzoyl)-1-isopropylhydrazinyl)-3-oxoprop-1-enyl)-1H-indole-1-carboxylate], the inhibition at 10 µM on human DGAT2 (setting [1]) worked out at 28.9%. For the same compound, the IC50 on human DGAT1 worked out at 2.1 µM.
For `CC(C)CCn1cc(/C=C/C(=O)N(NC(=O)c2ccc(F)cc2)C(C)C)c2ccccc21` [Example 46, (E)-4-fluoro-N′-(3-(1-isopentyl-1H-indol-3-yl)acryloyl)-N′-isopropylbenzohydrazide] the same measures were 64% and 1 µM.
For `Cc1cccc(C(=O)NN(C(=O)/C=C/c2cn(C(=O)OC(C)(C)C)c3ccccc23)C(C)C)c1` [Example 47, (E)-tert-butyl 3-(3-(1-isopropyl-2-(3-methylbenzoyl)hydrazinyl)-3-oxoprop-1-enyl)-1H-indole-1-carboxylate] the same measures were 34.1% and 2.9 µM.
Take `Cc1ccc(C(=O)NN(C(=O)/C=C/c2cn(C(=O)OC(C)(C)C)c3ccccc23)C(C)C)cc1` [Example 48, (E)-tert-butyl 3-(3-(1-isopropyl-2-(4-methylbenzoyl)hydrazinyl)-3-oxoprop-1-enyl)-1H-indole-1-carboxylate]: the inhibition at 10 µM at human DGAT2 (setting [1]) turned out to be 22.1%. Besides, the IC50 at human DGAT1 was determined as 9.8 µM.
Turning to `CC(C)=CCn1cc(/C=C/C(=O)N(NC(=O)c2ccc(F)cc2)C(C)C)c2ccccc21` [Example 49, (E)-4-fluoro-N′-isopropyl-N′-(3-(1-(3-methylbut-2-enyl)-1H-indol-3-yl)acryloyl)benzohydrazide], the inhibition at 10 µM on human DGAT2 (setting [1]) was determined as 28%. Further, the IC50 on human DGAT1 was determined as 1.5 µM.
